Read-outs that look alike come from different tables or passages of the source.
Legend:
Assay in all cases: Ras GTP binding domain inhibition assay (Cy3-GTP/Cy5-GTP competition)
KRas Q61H mutant = system: KRas Q61H mutant; parameters: species or system human; conditions: 20 μM; for KRas Q61H mutant + SOS: % inh.: with SOS; for KRas Q61H mutant: % inh.: without SOS
Experimental: (§1) The following method was developed as specific assay for the following proteins: KRas wild type, KRas Q61H mutant, KRas G12C mutant, KRas G12D mutant, HRas wild type, Rac-1, and Rho-A.
(§2) • 25 mM Tris-HCl, pH 7.4 • 27 mM KCl • 137 mM NaCl • 1 mM MgCl2 • 1 mM DTT
(§3) • 50 mM Tris-HCl, pH 7.0 • 1 mM MgCl2 • 1 mM DTT
(§4) The small GTPases proteins: KRas wild type. KRas Q61H mutant, KRas G12C mutant, KRas G12D mutants, HRas wild type, Rac-1, and Rho-A were expressed as His-tagged proteins. In addition, the Guanosine nucleotide Exchange Factor (GEF) Sos protein (residues 556-1049) was expressed as a His-tagged protein. In cells, the guanine nucleotide exchange factor Sos protein promotes activation of Ras proteins by stimulating an exchange of GDP for GTP. The inclusion of Sos to the Ras GTP binding domain inhibition assay may be considered as an alternative representation of physiological cellular conditions for evaluating the inhibitory activity of some of the tested small molecules.
(§5) For the assay, all purified small GTPases proteins were diluted in Buffer-I or Buffer-II to a final concentration of 10-30 μg/mL. 200 μL of each diluted protein was added to a nickel-coated 96-well plate and incubated overnight at 4° C. Then the protein solution was discarded and 200 μL of Buffer-I or Buffer-II was added to each well in the presence of 1% DMSO. Compounds to be tested were added to the protein-coated wells at final concentration of 20 μM, and incubated for 3 hours at room temperature with and without […] of Sos added to the final hour of the incubation. When performing IC50 measurements a serial dilution of all tested concentrations was added. Then Cy3-GTP or Cy5-GTP was added to each well to a final concentration of 100 nM. The labeled GTP was incubated for 45 minutes at room temperature. Following GTP incubation, wells were washed 3× in Buffer-I or Buffer-II and 200 μL of Buffer-I or Buffer-II was added to each well. Following washes, the amount of bound labeled-GTP was measured using a SpectraMax M3 (Molecular Devices).

KRas wild type = system: KRas wild type; parameters: species or system human; conditions: 20 μM; for KRas wild type + SOS: % inh.: with SOS; for KRas wild type: % inh.: without SOS
Experimental: as §1, §2, §3, §4, §5

KRas G12C mutant = system: KRas G12C mutant; parameters: species or system human; conditions: 20 μM; for KRas G12C mutant + SOS: % inh.: with SOS; for KRas G12C mutant: % inh.: without SOS
Experimental: as §1, §2, §3, §4, §5

KRas G12D mutant = target: T1, KRas G12D mutant (Homo sapiens, UniProt P01116, G12D); conditions: 20 μM
T1 construct: fused on or other part: His tag, used for capture on nickel-coated plates
Experimental: as §1, §2, §3, §4, §5

[1] = with SOS, read-out: KRas G-12D mutant + SOS: % inh.
[2] = without SOS, read-out: KRas G12D mutant: % inh.

Compound: CC(C)CN(C)C(=O)c1nc(-c2ccccn2)nc(O)c1O [drawing 798]
- KRas Q61H mutant + SOS: % inh. (KRas Q61H mutant): B (26-50% inhibition)
- KRas Q61H mutant: % inh. (KRas Q61H mutant): B (26-50% inhibition)
- KRas wild type + SOS: % inh. (KRas wild type): A (1-25% inhibition)
- KRas wild type: % inh. (KRas wild type): B (26-50% inhibition)
- KRas G12C mutant + SOS: % inh. (KRas G12C mutant): B (26-50% inhibition)
- KRas G12C mutant: % inh. (KRas G12C mutant): C (51-75% inhibition)
- inhibition at 20 µM (KRas G12D mutant; [1]): 26 to 50%
- inhibition at 20 µM (KRas G12D mutant; [2]): 26 to 50%

Compound: CN(Cc1ccccc1)C(=O)c1nc(-c2ccccn2)nc(O)c1O [drawing 799]
- KRas Q61H mutant + SOS: % inh. (KRas Q61H mutant): B (26-50% inhibition)
- KRas Q61H mutant: % inh. (KRas Q61H mutant): C (51-75% inhibition)
- KRas wild type + SOS: % inh. (KRas wild type): B (26-50% inhibition)
- KRas wild type: % inh. (KRas wild type): C (51-75% inhibition)
- KRas G12C mutant + SOS: % inh. (KRas G12C mutant): B (26-50% inhibition)
- KRas G12C mutant: % inh. (KRas G12C mutant): C (51-75% inhibition)
- inhibition at 20 µM (KRas G12D mutant; [1]): 26 to 50%
- inhibition at 20 µM (KRas G12D mutant; [2]): 26 to 50%

Compound: O=C(c1nc(-c2ccccn2)nc(O)c1O)N1CCOCC1 [drawing 800]
- KRas Q61H mutant + SOS: % inh. (KRas Q61H mutant): A (1-25% inhibition)
- KRas Q61H mutant: % inh. (KRas Q61H mutant): B (26-50% inhibition)
- KRas wild type + SOS: % inh. (KRas wild type): A (1-25% inhibition)
- KRas wild type: % inh. (KRas wild type): C (51-75% inhibition)
- KRas G12C mutant + SOS: % inh. (KRas G12C mutant): A (1-25% inhibition)
- KRas G12C mutant: % inh. (KRas G12C mutant): B (26-50% inhibition)
- inhibition at 20 µM (KRas G12D mutant; [1]): 26 to 50%
- inhibition at 20 µM (KRas G12D mutant; [2]): 26 to 50%

Compound: COc1cccc(Oc2nc(-c3ccccn3)nc(O)c2OC)c1 [drawing 801]
- KRas Q61H mutant + SOS: % inh. (KRas Q61H mutant): C (51-75% inhibition)
- KRas Q61H mutant: % inh. (KRas Q61H mutant): D (76-100% inhibition)
- KRas wild type + SOS: % inh. (KRas wild type): C (51-75% inhibition)
- KRas wild type: % inh. (KRas wild type): D (76-100% inhibition)
- KRas G12C mutant + SOS: % inh. (KRas G12C mutant): C (51-75% inhibition)
- KRas G12C mutant: % inh. (KRas G12C mutant): C (51-75% inhibition)
- inhibition at 20 µM (KRas G12D mutant; [1]): 51 to 75%
- inhibition at 20 µM (KRas G12D mutant; [2]): 76 to 100%

Compound: COc1c(O)nc(-c2ccccn2)nc1Oc1cccnc1 [drawing 802]
- KRas Q61H mutant + SOS: % inh. (KRas Q61H mutant): C (51-75% inhibition)
- KRas Q61H mutant: % inh. (KRas Q61H mutant): D (76-100% inhibition)
- KRas wild type + SOS: % inh. (KRas wild type): B (26-50% inhibition)
- KRas wild type: % inh. (KRas wild type): D (76-100% inhibition)
- KRas G12C mutant + SOS: % inh. (KRas G12C mutant): C (51-75% inhibition)
- KRas G12C mutant: % inh. (KRas G12C mutant): C (51-75% inhibition)
- inhibition at 20 µM (KRas G12D mutant; [1]): 51 to 75%
- inhibition at 20 µM (KRas G12D mutant; [2]): 51 to 75%

Compound: COc1c(O)nc(-c2ccccn2)nc1Oc1cnn(C)c1 [drawing 803]
- KRas Q61H mutant + SOS: % inh. (KRas Q61H mutant): C (51-75% inhibition)
- KRas Q61H mutant: % inh. (KRas Q61H mutant): D (76-100% inhibition)
- KRas wild type + SOS: % inh. (KRas wild type): B (26-50% inhibition)
- KRas wild type: % inh. (KRas wild type): D (76-100% inhibition)
- KRas G12C mutant + SOS: % inh. (KRas G12C mutant): C (51-75% inhibition)
- KRas G12C mutant: % inh. (KRas G12C mutant): C (51-75% inhibition)
- inhibition at 20 µM (KRas G12D mutant; [1]): 51 to 75%
- inhibition at 20 µM (KRas G12D mutant; [2]): 51 to 75%

Compound: COc1c(O)nc(-c2ccccn2)nc1Oc1ccc2ncccc2c1 [drawing 804]
- KRas Q61H mutant + SOS: % inh. (KRas Q61H mutant): C (51-75% inhibition)
- KRas Q61H mutant: % inh. (KRas Q61H mutant): C (51-75% inhibition)
- KRas wild type + SOS: % inh. (KRas wild type): B (26-50% inhibition)
- KRas wild type: % inh. (KRas wild type): C (51-75% inhibition)
- KRas G12C mutant + SOS: % inh. (KRas G12C mutant): C (51-75% inhibition)
- KRas G12C mutant: % inh. (KRas G12C mutant): C (51-75% inhibition)
- inhibition at 20 µM (KRas G12D mutant; [1]): 26 to 50%
- inhibition at 20 µM (KRas G12D mutant; [2]): 51 to 75%

Compound: COCC1CN(c2nc(-c3nccn3C)nc3sc(-c4cccc(OC)c4F)c(-c4ccc(OC)cc4)c23)C1 [drawing 805]
- KRas Q61H mutant + SOS: % inh. (KRas Q61H mutant): D (76-100% inhibition)
- KRas Q61H mutant: % inh. (KRas Q61H mutant): D (76-100% inhibition)
- KRas wild type + SOS: % inh. (KRas wild type): D (76-100% inhibition)
- KRas wild type: % inh. (KRas wild type): C (51-75% inhibition)
- KRas G12C mutant + SOS: % inh. (KRas G12C mutant): D (76-100% inhibition)
- KRas G12C mutant: % inh. (KRas G12C mutant): B (26-50% inhibition)
- inhibition at 20 µM (KRas G12D mutant; [1]): 51 to 75%
- inhibition at 20 µM (KRas G12D mutant; [2]): 51 to 75%

Compound: COc1ccc(-c2c(-c3cccc(OC)c3F)sc3nc(-c4nccn4C)nc(N4CCC(OC)C4)c23)cc1 (stereo not drawn) [drawing 806]
- KRas Q61H mutant + SOS: % inh. (KRas Q61H mutant): D (76-100% inhibition)
- KRas Q61H mutant: % inh. (KRas Q61H mutant): C (51-75% inhibition)
- KRas wild type + SOS: % inh. (KRas wild type): D (76-100% inhibition)
- KRas wild type: % inh. (KRas wild type): C (51-75% inhibition)
- KRas G12C mutant + SOS: % inh. (KRas G12C mutant): D (76-100% inhibition)
- KRas G12C mutant: % inh. (KRas G12C mutant): A (1-25% inhibition)
- inhibition at 20 µM (KRas G12D mutant; [1]): 51 to 75%
- inhibition at 20 µM (KRas G12D mutant; [2]): 51 to 75%

Reference: patent US20250296938A1, “Compounds that Interact with the Ras Superfamily for the Treatment of Cancers, Inflammatory Diseases, Rasopathies, and Fibrotic Disease” (SHY Therapeutics, LLC, priority 2018, published 2025)
